Experimental data reported in patent publication US20200397913A1, “AXL-SPECIFIC ANTIBODY-DRUG CONJUGATES FOR CANCER TREATMENT” (GENMAB A/S, priority 2015, published 2020).

Legend:
ES0195 tumors = experiment: Esophageal cancer PDX model ES0195; assay type: in vivo, BALB/c nude mice; settings: 4 mg/kg i.v. at day 0 and day 7
Protocol: Tumor fragments from donor mice bearing patient-derived esophageal xenografts (ES0195) were used for inoculation into BALB/c nude mice. Each mouse was inoculated subcutaneously at the right flank with one tumor fragment (2-3 mm in diameter) and tumors were allowed to grow until the tumor volume was about 150 mm^3. […] The antibodies and ADCs were dosed intravenously (i.v.) at 4 mg/kg at day of randomization (day 0) and day 7. Paclitaxel was dosed intra-peritoneally (i.p.) at 20 mg/kg at day 0, 7, and 14. Tumor volumes (mm^3) were monitored twice weekly and were calculated from caliper (PLEXX) measurements as: 0.52×(length)×(width)^2.

SKMEL147 cells = experiment: Melanoma cell line viability assay (CellTiter-Glo); assay type: cell-based, human; settings: ADC 1×10^−4 to 10 μg/mL, 5 days

## IgG1-AXL-107-vcMMAE: IgG1-AXL-107 conjugated at cysteines to vcMMAE (mc-vc-PAB linker, MMAE)
ES0195 tumors
  anti-tumor activity: induced tumor regression
SKMEL147 cells
  sensitivity of the cell line to the substance: sensitive
SKMEL147 cells; listed as HuMax-AXL-ADC
  sensitivity of the cell line to the substance: Sensitive
